# In patent US7989466B2, “Methods to inhibit or augment an inflammatory response” (Cambridge Enterprise Limited, priority 1999, dated 2011):
# Positions of bridges follow the written chain, without caps; N, C: chain ends. Non-standard residues stand in square brackets, D forms with d. Residues, ends and D or L forms follow the SMILES beside them.
# How the values were obtained:
# [1] = system: T cell-dependent antibody response; assay: Antibody response in mice immunized with sheep red blood cells; assay type: in vivo, mouse; settings: T cell-independent response not prevented
# [2] = system: LPS- and MCP-1-induced dermal inflammation; assay: Rat dermal inflammation model (MCP-1 / LPS intradermal); assay type: in vivo
# Description: To assess the efficacy of an agent of the invention in the prevention of lipopolysaccharide (LPS)- and MCP-1-induced dermal inflammation in the rat, three different doses of CRD-Leu4Ile11Cys13peptide 3(3-12)[MCP-1] were administered. An inflammatory response was elicited by intradermal injection (ventral abdomen) of either 500 ng MCP-1 or 100 ng MCP-1 along with endotoxin-free phosphate-buffered saline vehicle (as a negative control) and bacterial lipopolysaccharide (LPS; as a positive control). Each substance was injected at a different site. The results obtained from animals were compared to CRD-Leu4Ile11Cys13 peptide 3(3-12)[MCP-1] treated, and PBS (diluent control) treated, animals. […] The intradermal sites of agonist injection were collected, bisected and the extent of the inflammatory response was assessed by histopathology and quantitative immunofluorescence (fixed and frozen) (for example, following MCP-1 injection, the number of monocyte/macrophages in the skin was determined using the anti-CD14 (MCA342 from Serotec; clone ED2) at 3 μg/ml overnight at 4° C. The second antibody was rat anti-mouse FITC (415-096-100 from Jackson ImmunoResearch) at 28 μg/ml for 6 hours at room temperature). […]
# CCR-2 = CCR-2 (Homo sapiens, UniProt P41597); assay: Competitive binding to CCR-2 on CHO cells; settings: read-out: ED50, Binding to CCR-2
# CCR-2, sequence (P41597 1-313 limits assumed): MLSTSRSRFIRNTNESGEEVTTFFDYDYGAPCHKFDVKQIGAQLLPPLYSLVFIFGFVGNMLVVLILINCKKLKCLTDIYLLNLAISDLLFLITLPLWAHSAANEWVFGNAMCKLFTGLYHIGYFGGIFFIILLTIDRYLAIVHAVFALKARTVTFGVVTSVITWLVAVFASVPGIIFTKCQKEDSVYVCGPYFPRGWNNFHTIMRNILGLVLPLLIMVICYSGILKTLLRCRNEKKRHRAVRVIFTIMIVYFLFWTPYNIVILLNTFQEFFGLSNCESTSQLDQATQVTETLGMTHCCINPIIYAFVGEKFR
# Description: A competitive binding assay was used to determine the binding of A-I to chemokine receptors. These experiments were performed under ‘Horuk’ conditions (Hesselgesser et al., J. Biol. Chem., 273, 15687 (1998)), except that CHO cells expressing CCR-2 or CXCR-2 (AIDS Reagent Program, MRC London) were used. In each case, the specific binding of 0.25 nM labeled ligand to the cells was determined as the counts bound which were competable by 100 nM cold ligand. In each experiment, A-I was added from a stock solution in DMSO (with <0.1% DMSO final concentration in the assay).
# 5-HT1a receptors = molecular target: T1, 5-HT1a receptors (Homo sapiens, UniProt P08908); assay: 5HT1a serotonin receptor membrane binding (3H-8-OH-DPAT)
# T1 construct: purchased RBI/Sigma S-160
# T1 sequence (P08908 whole entry): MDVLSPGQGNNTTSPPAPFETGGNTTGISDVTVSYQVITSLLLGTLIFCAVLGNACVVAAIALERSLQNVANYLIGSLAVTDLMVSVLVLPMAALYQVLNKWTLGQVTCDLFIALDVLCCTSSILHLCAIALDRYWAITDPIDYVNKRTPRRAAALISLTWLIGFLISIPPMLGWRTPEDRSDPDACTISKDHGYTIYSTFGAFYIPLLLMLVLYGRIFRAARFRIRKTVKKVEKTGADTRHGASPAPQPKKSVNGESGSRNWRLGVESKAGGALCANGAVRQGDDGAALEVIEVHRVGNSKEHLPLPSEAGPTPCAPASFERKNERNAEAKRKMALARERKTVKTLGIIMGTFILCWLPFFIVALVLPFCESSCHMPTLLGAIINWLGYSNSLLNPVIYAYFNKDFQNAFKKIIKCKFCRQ
# Description: For 5HT1a serotonin receptors, membranes (S-160, RBI/Sigma) are diluted into binding buffer (50 mM Tris pH 7.4 10 mM MgCl2 and 0.5 mM EDTA, with ascorbate at 1 mg/ml added immediately before use), e.g., 10 μl of membranes in 500 μl assay volume (i.e., 1:50 dilution). Cold competitor or test competitor is then added, e.g., 5 μl of 100× stock solution such as 5 μl of 1 mM oxymetazoline. […] The tubes are vortexed then spun briefly. The mixtures are incubated for 1 hour at 4° C. The mixtures are filtered through GF/C filters pre-soaked in polyethyleneimine (0.3% in MilliQ water). The tubes are washed with 2-3 ml of wash buffer and filtered. The filter is washed with 3×5 ml of wash buffer, and air dried. 4.5 ml of scintillant is added to the dried filter in a scintillation vial and the filter counted on a tritium channel.
Structure (SMILES),T cell-dependent antibody response [1],recruitment of B-cells to the site of the LPS injection ([2]; rat skin),MCP-1 induced recruitment of monocyte/macrophages in rat skin ([2]; systemic treatment 30 minutes before intradermal MCP-1),EC50 (CCR-2),selectivity for MCP-1 inhibition over serotonin receptor binding (5-HT1a receptors),EC50 (5-HT1a receptors; 100 μM highest concentration tested)
CC[C@@H](C)[C@H]1NC(=O)[C@@H](CCC(N)=O)NC(=O)[C@H](N)CSSC[C@H](C(N)=O)NC(=O)[C@@H](CC(C)C)NC(=O)[C@@H](CC(=O)O)NC(=O)[C@H]2CCCN2C(=O)[C@@H](CCCCN)NC(=O)[C@@H](CCC(N)=O)NC(=O)[C@@H](CCCCN)NC(=O)[C@@H](Cc2c[nH]c3ccccc23)NC1=O (H-[dC][dQ][dI][dW][dK][dQ][dK][dP][dD][dL][dC]-NH2; disulfide 1-11; N-terminus assumed),prevented,substantially inhibited,completely abolished,–,–,–
"C=CCCCCCCCCC(=O)N[C@H]1CCC(=O)NC1=O [A-I (NR58.4), [3S]-3-(undec-10-enoylamino)piperidine-2,6-dione]",–,–,–,0.005 µM,"approximately 40,000 fold",80 µM
